Legend:
PANC-1 = assay: Cytotoxicity against Homo sapiens (human) PANC1 cells at 10 uM after 48 hr by propidium iodide-based fluorometric assay; assay type: functional; conditions: PANC-1, 48 h, read-out: GI
[1] = Antioxidant activity assessed as hydroxyl radical scavenging activity at 1 uM by spectrophotometric analysis; assay type: functional
[2] = tested on: Radical scavenging activity; assay: Antioxidant activity assessed as DPPH radical scavenging activity at 1 uM after 20 min by spectrophotometric analysis; assay type: functional
Trypsin (Homo sapiens) = Trypsin (Homo sapiens) (UniProt P07477+P07478+P35030); assay: Inhibition of trypsin (unknown origin) using bovine serum albumin as substrate at 1 uM incubated for 20 min prior to substrate addition measured after 25 min by Lowry method; assay type: protein assay
ACHN = assay: Cytotoxicity against Homo sapiens (human) ACHN cells at 10 uM after 48 hr by propidium iodide-based fluorometric assay; assay type: functional; conditions: read-out: GI
THP-1 [3] = assay: Anti-inflammatory activity in Homo sapiens (human) THP1 cells assessed as inhibition of LPS-induced TNFalpha production at 10 uM incubated for 30 min prior to LPS-challenge measured after 24 hr by ELISA; assay type: functional
THP-1 [4] = assay: Anti-inflammatory activity in Homo sapiens (human) THP1 cells assessed as inhibition of LPS-induced IL6 production at 10 uM incubated for 30 min prior to LPS-challenge measured after 24 hr by ELISA; assay type: functional
[5] = Cytotoxicity against Homo sapiens (human) […] cells at 10 uM; assay type: cell-based
Calu-1 = assay: Cytotoxicity against Homo sapiens (human) Calu1 cells at 10 uM after 48 hr by propidium iodide-based fluorometric assay; assay type: functional; conditions: Calu-1, 48 h, read-out: GI
[6] = target: T1, Beta-glucuronidase (Homo sapiens) (UniProt P08236); assay: Inhibition of beta-glucuronidase (unknown origin) using p-nitrophenyl-beta-D-glucopyranosiduronic acid as substrate at 1 uM after 30 min by spectrophotometric analysis
T1 sequence (whole entry): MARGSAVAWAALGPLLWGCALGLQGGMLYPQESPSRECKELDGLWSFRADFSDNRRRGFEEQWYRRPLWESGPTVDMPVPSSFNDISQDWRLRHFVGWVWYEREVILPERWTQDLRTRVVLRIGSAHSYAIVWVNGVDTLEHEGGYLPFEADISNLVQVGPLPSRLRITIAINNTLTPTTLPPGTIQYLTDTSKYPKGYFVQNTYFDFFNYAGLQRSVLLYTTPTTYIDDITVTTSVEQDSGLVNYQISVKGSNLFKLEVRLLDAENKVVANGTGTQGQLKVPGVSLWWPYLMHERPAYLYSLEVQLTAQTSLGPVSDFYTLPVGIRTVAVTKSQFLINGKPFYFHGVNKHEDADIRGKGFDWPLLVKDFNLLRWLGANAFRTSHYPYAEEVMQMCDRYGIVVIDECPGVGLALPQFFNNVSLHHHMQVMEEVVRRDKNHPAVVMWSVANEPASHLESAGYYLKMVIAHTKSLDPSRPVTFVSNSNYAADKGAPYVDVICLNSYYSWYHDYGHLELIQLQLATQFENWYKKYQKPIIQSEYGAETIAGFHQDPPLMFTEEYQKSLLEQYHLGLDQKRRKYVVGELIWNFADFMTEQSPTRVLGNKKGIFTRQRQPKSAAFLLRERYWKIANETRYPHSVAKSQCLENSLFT

[7] = Cytotoxicity against Homo sapiens (human) H460 cells at 10 uM after 48 hr by propidium iodide-based fluorometric assay; assay type: functional; conditions: NCI-H460, 48 h, read-out: GI
[8] = Antioxidant activity assessed as reduction of potassium ferricynide at 1 uM after 10 min by spectrophotometric analysis; assay type: functional; design: scale not given: the % may be the effect or the level left
HCT-116 = assay: Cytotoxicity against Homo sapiens (human) HCT116 cells at 10 uM after 48 hr by propidium iodide-based fluorometric assay; assay type: functional; conditions: HCT-116, 48 h, read-out: GI
[9] = target: T2, Prostaglandin G/H synthase 2 (Ovis aries) (UniProt P79208); assay: Inhibition of Ovis aries (sheep) COX2 at 1 uM after 5 min by colorimetric analysis
T2 sequence (whole entry): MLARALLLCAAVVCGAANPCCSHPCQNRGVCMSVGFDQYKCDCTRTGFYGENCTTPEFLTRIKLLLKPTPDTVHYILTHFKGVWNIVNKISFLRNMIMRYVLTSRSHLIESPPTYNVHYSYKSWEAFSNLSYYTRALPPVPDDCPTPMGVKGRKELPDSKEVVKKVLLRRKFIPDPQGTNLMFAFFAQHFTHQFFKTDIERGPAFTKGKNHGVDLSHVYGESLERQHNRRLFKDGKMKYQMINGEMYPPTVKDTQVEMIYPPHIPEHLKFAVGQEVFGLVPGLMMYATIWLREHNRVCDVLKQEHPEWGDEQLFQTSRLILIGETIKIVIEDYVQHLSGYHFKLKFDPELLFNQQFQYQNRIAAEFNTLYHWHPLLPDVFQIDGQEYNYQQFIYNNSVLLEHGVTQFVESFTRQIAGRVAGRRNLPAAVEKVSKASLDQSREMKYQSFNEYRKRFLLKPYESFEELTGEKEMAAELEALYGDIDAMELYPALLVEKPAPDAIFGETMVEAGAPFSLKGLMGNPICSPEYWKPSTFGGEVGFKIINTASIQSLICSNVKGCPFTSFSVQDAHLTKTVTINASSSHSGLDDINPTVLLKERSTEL

[10] = target: T3, Prostaglandin G/H synthase 1 (Ovis aries) (UniProt P05979); conditions: at 1 µM;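 note: colorimetric read-out, measured after 5 min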
T3 sequence (whole entry): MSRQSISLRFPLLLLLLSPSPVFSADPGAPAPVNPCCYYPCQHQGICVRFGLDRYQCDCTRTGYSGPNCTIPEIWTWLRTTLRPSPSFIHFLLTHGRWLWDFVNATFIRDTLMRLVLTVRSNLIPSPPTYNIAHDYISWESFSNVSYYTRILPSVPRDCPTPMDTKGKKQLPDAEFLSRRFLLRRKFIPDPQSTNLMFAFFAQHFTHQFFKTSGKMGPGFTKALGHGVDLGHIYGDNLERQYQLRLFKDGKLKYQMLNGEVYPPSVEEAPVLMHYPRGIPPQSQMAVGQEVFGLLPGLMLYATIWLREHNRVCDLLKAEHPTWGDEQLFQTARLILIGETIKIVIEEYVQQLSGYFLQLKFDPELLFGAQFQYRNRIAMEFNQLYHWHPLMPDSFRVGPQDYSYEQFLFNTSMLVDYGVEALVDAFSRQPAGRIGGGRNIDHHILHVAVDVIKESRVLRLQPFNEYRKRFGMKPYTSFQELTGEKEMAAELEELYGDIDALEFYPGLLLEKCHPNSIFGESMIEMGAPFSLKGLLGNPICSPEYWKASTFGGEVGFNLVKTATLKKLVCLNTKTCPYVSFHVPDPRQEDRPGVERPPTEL
Description: Inhibition of Ovis aries (sheep) COX1 at 1 uM after 5 min by colorimetric analysis

COc1cc(OC)c(/C=C/C(=O)c2cccc(NC(=O)c3cccc(Br)c3)c2)c(OC)c1Br
inhibition of growth at 10 µM (PANC-1): 0% | Activity [1]: 23.6% | Activity [2]: 42.6% | inhibition (Trypsin (Homo sapiens)): 66.5% | inhibition of growth at 10 µM (ACHN): 6% | inhibition at 10 µM (THP-1 [3]): 4% | inhibition at 10 µM (THP-1 [4]): 75% | Activity [5]: 31% | inhibition of growth at 10 µM (Calu-1): 0% | inhibition [6]: 84.7% | inhibition of growth at 10 µM [7]: 6% | Activity [8]: 39.7% | inhibition of growth at 10 µM (HCT-116): 0% | inhibition [9]: 88.4% | inhibition [10]: 41.7%

COc1cc(OC)c(/C=C/C(=O)c2cccc(NC(=O)c3cccc(C(F)(F)F)c3)c2)c(OC)c1Br
inhibition of growth at 10 µM (PANC-1): 0% | Activity [2]: 45.7% | inhibition (Trypsin (Homo sapiens)): 65.5% | inhibition of growth at 10 µM (ACHN): 15% | inhibition at 10 µM (THP-1 [3]): 85% | inhibition at 10 µM (THP-1 [4]): 97% | Activity [5]: 65% | inhibition of growth at 10 µM (Calu-1): 0% | inhibition [6]: 81.4% | inhibition of growth at 10 µM [7]: 4% | Activity [8]: 40.7% | inhibition of growth at 10 µM (HCT-116): 6% | inhibition [9]: 89.2% | inhibition [10]: 48.9%

O=C(O)c1ccccc1O
inhibition (Trypsin (Homo sapiens)): 85% | inhibition [6]: 24.8%

COc1cc(OC)c(/C=C/C(=O)c2cccc(NC(=O)c3ccccc3)c2)c(OC)c1Br
inhibition of growth at 10 µM (PANC-1): 10% | Activity [1]: 54.1% | Activity [2]: 49.4% | inhibition (Trypsin (Homo sapiens)): 58.1% | inhibition of growth at 10 µM (ACHN): 21% | inhibition at 10 µM (THP-1 [3]): 91% | inhibition at 10 µM (THP-1 [4]): 98% | Activity [5]: 65% | inhibition of growth at 10 µM (Calu-1): 6% | inhibition [6]: 49.6% | inhibition of growth at 10 µM [7]: 14% | Activity [8]: 46.6% | inhibition of growth at 10 µM (HCT-116): 0% | inhibition [9]: 65.7% | inhibition [10]: 51.9%

O=C(O)c1cc(O)c(O)c(O)c1
Activity [2]: 92.4%

COc1cc(OC)c(/C=C/C(=O)c2cccc(NC(=O)c3ccccc3C)c2)c(OC)c1Br
inhibition of growth at 10 µM (PANC-1): 3% | Activity [1]: 34.6% | Activity [2]: 31.1% | inhibition (Trypsin (Homo sapiens)): 35.5% | inhibition of growth at 10 µM (ACHN): 15% | inhibition at 10 µM (THP-1 [3]): 72% | inhibition at 10 µM (THP-1 [4]): 95% | Activity [5]: 54% | inhibition of growth at 10 µM (Calu-1): 0% | inhibition [6]: 29.7% | inhibition of growth at 10 µM [7]: 32% | Activity [8]: 22.3% | inhibition of growth at 10 µM (HCT-116): 21% | inhibition [9]: 43.7% | inhibition [10]: 31.5%

COc1cc(OC)c(/C=C/C(=O)c2cccc(NC(=O)c3ccccc3C(F)(F)F)c2)c(OC)c1Br
inhibition of growth at 10 µM (PANC-1): 3% | Activity [1]: 35.9% | Activity [2]: 44.6% | inhibition (Trypsin (Homo sapiens)): 68.4% | inhibition of growth at 10 µM (ACHN): 6% | inhibition at 10 µM (THP-1 [3]): 85% | inhibition at 10 µM (THP-1 [4]): 95% | Activity [5]: 62% | inhibition of growth at 10 µM (Calu-1): 0% | inhibition [6]: 76.9% | inhibition of growth at 10 µM [7]: 11% | Activity [8]: 42.9% | inhibition of growth at 10 µM (HCT-116): 6% | inhibition [9]: 87.9% | inhibition [10]: 39.9%

COc1cc(OC)c(/C=C/C(=O)c2cccc(NC(=O)c3cccc(F)c3)c2)c(OC)c1Br
inhibition of growth at 10 µM (PANC-1): 32% | Activity [1]: 32.2% | Activity [2]: 43.3% | inhibition (Trypsin (Homo sapiens)): 63.5% | inhibition of growth at 10 µM (ACHN): 33% | inhibition at 10 µM (THP-1 [3]): 78% | inhibition at 10 µM (THP-1 [4]): 93% | Activity [5]: 51% | inhibition of growth at 10 µM (Calu-1): 31% | inhibition [6]: 72.9% | inhibition of growth at 10 µM [7]: 33% | Activity [8]: 39.9% | inhibition of growth at 10 µM (HCT-116): 26% | inhibition [9]: 82.5% | inhibition [10]: 59.8%

COc1cc(OC)c(/C=C/C(=O)c2cccc(NC(=O)c3cccc(Cl)c3)c2)c(OC)c1Br
inhibition of growth at 10 µM (PANC-1): 35% | Activity [2]: 45.3% | inhibition (Trypsin (Homo sapiens)): 78.1% | inhibition of growth at 10 µM (ACHN): 26% | inhibition at 10 µM (THP-1 [3]): 0% | inhibition at 10 µM (THP-1 [4]): 64% | Activity [5]: 25% | inhibition of growth at 10 µM (Calu-1): 26% | inhibition [6]: 78.2% | inhibition of growth at 10 µM [7]: 17% | Activity [8]: 38.4% | inhibition of growth at 10 µM (HCT-116): 28% | inhibition [9]: 86.5% | inhibition [10]: 53.9%

CC(=O)Oc1ccccc1C(=O)O
inhibition [9]: 36.9%
